{"source": "paper PMC9225741", "about": "“Inhibition of Streptococcus mutans adhesion and biofilm formation with small-molecule inhibitors of sortase A from Juniperus chinensis” (Journal of Oral Microbiology, 2022)", "key": {"[1]": {"test_system": "S. mutans OMZ65", "assay": "Antibacterial activity assay (MIC, broth dilution)", "type": "cell-based, Streptococcus mutans", "settings": "S. mutans OMZ65, BHI broth, 16–20 h, 37°C, read-out: MIC (minimum inhibitory concentration)", "method": "Antibacterial activities of isolated compounds were determined according to a previously described method based on Clinical and Laboratory Standards Institute guidelines. Briefly, 5 mL of S. mutans OMZ65 was inoculated into brain heart infusion (BHI) broth, incubated aerobically for 16 h at 37°C, and the bacterial density was adjusted based on turbidity to match the 0.5 MacFarland standard at 625 nm. In each well of a 96-well plate, 20 μL of twofold diluted test compounds in 10% DMSO was added to 180 μL of cell culture in BHI broth and incubated for 16–20 h at 37°C. The final concentration of cells was approximately 5 × 10^5 colony-forming units (CFU)/mL. The minimal inhibitory concentration (MIC) values were identified as the lowest concentration that inhibited cell growth. Ampicillin was used as an antibacterial positive control."}, "[2]": {"test_system": "SrtA (from strain ATCC25175)", "set-up": "method as in PMID 24154653", "settings": "cited from earlier work"}, "[3]": {"test_system": "S. mutans NG8", "assay": "Adherence assay on saliva-coated hydroxyapatite beads", "type": "cell-based, Streptococcus mutans", "settings": "90 min", "procedure": "The effect of SrtA inhibition on bacterial adherence was evaluated using saliva-coated hydroxyapatite beads (s-HAs) [11, 25]. A total of 30 μg of s-HAs (diameter, 80 µm; Bio-Rad, Hercules, CA) were coated with fresh saliva prepared as mentioned above for 1 h at room temperature and rinsed twice with 0.01 M potassium phosphate buffer (KPB; pH 7.0). S. mutans NG8 (wild type), srtA-deletion mutant (ΔsrtA), and srtA-complemented mutant (ΔsrtA + srtA) [11] were inoculated into 5 mL of BHI broth, incubated aerobically for 16 h at 37°C, and diluted to about 10^8 CFU/mL. […] After three rounds of washing with KPB, attachment between s-HAs and S. mutans cells was disrupted through sonication (50 W, 30s) in KPB. Dispersed cells were spread on Mitis-Salivarius agar (Difco, Detroit, MI) plates containing 3.2 mg/mL bacitracin. The number of colonies formed was determined after incubation for 48 h at 37°C.\nIn the present study, the role of SrtA inhibitors in modulating cell-surface-related properties of S. mutans was investigated in terms of adherence.\nAttachment of S. mutans NG8, srtA-deletion mutant (ΔsrtA), and srtA-complemented mutant (ΔsrtA+srtA) was induced for 90 min at 37°C under aerobic condition, followed by dispersal via sonication (50 W, 30s) after three washes, and then colony-forming unit counting on Mitis-Salivarius agar (3.2 mg/mL bacitracin) after incubation for 48 h at 37°C. […]"}, "[4]": {"test_system": "S. mutans NG8", "assay": "Saliva-induced aggregation assay", "type": "cell-based, Streptococcus mutans", "method": "The effect of SrtA inhibitor on bacterial cell aggregation induced by human saliva was conducted according to a previously documented procedure. S. mutans NG8 (wild-type), srtA-deletion mutant (ΔsrtA), and srtA-complemented mutant (ΔsrtA+srtA) were used in this study. These strains were kindly provided by Prof. S. F. Lee (Dalhousie University, Nova Scotia, Canada) and inoculated into Todd Hewitt broth and incubated for 16 h at 37°C, washed twice with KPBS (137 mM NaCl, 2.7 mM KCl, 6.5 mM Na2HPO4, 1.5 mM KH2PO4, pH 7.2), and resuspended in KPBS to an approximate optical density of 1.0 at 700 nm. Assay mixtures consisted of 400 μL of cells, 100 μL of fresh clarified saliva, and diluted test compounds. Saliva was provided from one volunteer (a unmarried person) who had no dental health issues. The collected non-stimulated saliva was clarified by centrifugation (7,000 × g, 10 min, 4°C) and sterilized by membrane filtration (0.2 μm pore size). The mixtures were gently mixed through inversion and incubated aerobically at 37°C for 2 h. Turbidity at 700 nm was recorded every 20 min.\nUsing a combined bioactivity test, we subsequently examined the inhibitory effects of compound 1 on saliva-induced aggregation of S. mutans (Figure 3). […] Aggregation levels were measured based on the decrease of turbidity at 700 nm. […]"}, "[5]": {"biological_target": "T1, S. mutans SrtA (Streptococcus mutans, UniProt Q8CM62)", "T1 construct": "made in house; host or cells: Escherichia coli", "T1 sequence (Q8CM62 entry or part of it)": "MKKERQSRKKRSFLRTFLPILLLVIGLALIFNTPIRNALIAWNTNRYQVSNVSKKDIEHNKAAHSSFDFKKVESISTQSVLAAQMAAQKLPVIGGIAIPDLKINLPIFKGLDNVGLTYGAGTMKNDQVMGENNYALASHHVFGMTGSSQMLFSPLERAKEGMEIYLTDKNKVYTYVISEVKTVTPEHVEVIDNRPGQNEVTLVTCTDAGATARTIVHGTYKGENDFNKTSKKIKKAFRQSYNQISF", "assay": "biochemical", "type": "biochemical, Streptococcus mutans OMZ65", "method": "Recombinant SrtA protein was prepared following previously described procedures. S. mutans OMZ65 isolated from the human oral cavity was provided by Seoul National University School of Dentistry. The srtA genes derived from S. mutans OMZ65 were expressed in Escherichia coli and SrtA was purified through metal chelate affinity chromatography on Ni-nitriloacetic acid (NTA) resin. Each reaction was performed in a total volume of 100 μL, containing 50 mM Tris-HCl, 150 mM NaCl, and 5 mM CaCl2 at pH 7.5, along with 17 μg of purified SrtA and 250 ng of synthetic substrate (Dabcyl-LPETG-Edans). The sample compounds were added to each reaction mixture with the solvent DMSO (final concentration, 1%). After 1 h of incubation at 37°C, the reactions were quantified based on fluorometric intensity (350 nm excitation and 495 nm emission wavelengths) using a microplate reader (FLx800, BioTek Instruments, Winooski, VT). Triphasiol was used as a positive control for the SrtA inhibitor.\nRecombinant SrtA protein derived from S. mutans OMZ65 was prepared from an extract of E. coli transformant using Ni-NTA affinity chromatography. SrtA enzyme activities were measured through a fluorophotometric method using synthetic peptide substrate containing the LPETG motif. […] As SrtA inhibitors may act as anti-infective agents and disrupt bacterial infectiousness without impacting bacterial viability, the MICs of the isolated compounds were evaluated to identify possible effects on S. mutans aggregation, adhesion, and biofilm formation on solid surfaces."}, "[6]": {"test_system": "S. mutans", "assay": "Biofilm formation assay (polystyrene plate and resin teeth, safranin staining)", "type": "cell-based, Streptococcus mutans", "settings": "24 h", "method": "The effect of SrtA inhibition on bacterial biofilm formation was investigated using the polystyrene plate and resin teeth model according to a previously described method. Wild-type S. mutans and srtA mutants were inoculated aerobically into 5 mL of BHI broth at 37°C. Cultures in BHI broth containing 0.1% sucrose (final concentration 5 × 10^5 CFU/mL) were incubated with or without test compounds on 96-well polystyrene plates or with resin teeth (Endura, Shofu Inc., Kyoto, Japan) at 37°C for 24 h under aerobic condition. Biofilms formed on the plate and resin teeth were washed twice with distilled water and then stained with 0.1% safranin for 30 s. After three further washes, the safranin-bound biofilms on plates were dissolved with 30% acetic acid (v/v aqueous solution) and the intensity of absorbance at 530 nm wavelength, indicating safranin, was measured. Biofilms on resin teeth was also washed three times and photographed.\nBacterial adherence and aggregation are initial steps in the biofilm formation process. Through interruption of SrtA enzyme activity, biofilm formation by S. mutans could also be disrupted. To investigate the effect of compound 1 on biofilm formation of S. mutans, the biofilm biomasses of NG8 and srtA mutants formed over 24 h on 96-well plates and resin teeth were assessed through staining with 0.1% safranin.\nFigure 5. Inhibition of Streptococcus mutans biofilm formation by compound 1. Biofilm formation assays were performed using a polystyrene 96-well plate (A) and artificial resin teeth (B) at 37°C for 24 h under aerobic condition. […] 0.1% NaF was used as a positive control. Data are presented as the mean ± SD of three independent experiments (* p < 0.05, ** p < 0.01, and *** p < 0.001 based on Student’s t-test)."}, "[7]": {"test_system": "S. aureus ATCC6537p-derived SrtA", "set-up": "method as in PMID 16010573", "settings": "cited from earlier work"}, "[8]": {"test_system": "SrtA S. mutans OMZ65", "set-up": "method as in PMID 25746812", "settings": "read-out: IC50, SrtA inhibitors against S. mutans OMZ65; cited from earlier work"}, "[9]": {"test_system": "SrtA derived from S. mutans UA159", "settings": "cited from earlier work"}, "[10]": {"test_system": "SrtA", "settings": "read-out: IC50, SrtA activity; cited from earlier work"}, "[11]": {"settings": "SrtA IC50, recombinant SrtA from S. mutans OMZ65, 1 h, 37°C"}}, "note": "Entries after “also recorded” stand apart in the source; their conditions may differ. Like-named read-outs stand apart in the source and are kept apart here.", "data": [{"compound": "CC1(C)S[C@@H]2[C@H](NC(=O)[C@H](N)c3ccccc3)C(=O)N2[C@H]1C(=O)O", "note": "[Ampicillin, reference compound]", "values": [{"measurement": "MIC", "setting": "[1]; Streptococcus mutans", "result": 0.4, "unit": "µM"}]}, {"compound": "C[C@@H]1O[C@@H](O[C@H]2C(=O)c3c(O)cc(O)cc3O[C@@H]2c2ccc(O)c(O)c2)[C@H](O)[C@H](O)[C@H]1O", "note": "[Astillbin]", "values": [{"measurement": "IC50, SrtA (from strain ATCC25175)", "setting": "[2]", "result": 7.5, "unit": "µg/mL"}, {"measurement": "IC50", "setting": "[2]; value in brackets", "result": 16.7, "unit": "µM"}]}, {"compound": "COc1cc(C[C@H]2COC(=O)[C@@H]2Cc2cc(O)c(O)c(OC)c2)cc(O)c1O", "note": "[Compound 1, 3’,3”-dihydroxy-(−)-matairesinol]", "values": [{"measurement": "adherence of S. mutans to s-HAs vs control (NG8)", "setting": "[3]; 1× IC50 (16.1 μM)", "result": "not significantly different"}, {"measurement": "decrease of bacterial adhesion to s-HAs compared to the control group", "setting": "[3]; 4× the IC50 (64.4 μM)", "result": "about 60%"}, {"measurement": "MIC", "setting": "[1]", "result": ">300", "unit": "µM"}, {"measurement": "MIC", "setting": "[1]; Streptococcus mutans", "result": "> 300", "unit": "µM"}, {"measurement": "saliva-induced cell aggregation", "setting": "[4]; 4× the IC50, without sucrose", "result": "significantly repressed"}, {"measurement": "saliva-induced aggregation of NG8 cells (turbidity at 700 nm)", "setting": "[4]; tested at 0×, 1×, 2× and 4× the SrtA IC50 (16.1, 32.2, 64.4 μM), 2 h, 37°C", "result": "markedly reduced the aggregation of NG8 cells in a dose-dependent manner; also recorded: markedly reduced the aggregation capacity of the bacterial cells in a dose-dependent manner"}, {"measurement": "IC50", "setting": "[5]; [11]", "result": 16.1, "unit": "µM"}, {"measurement": "biofilm formation on 96-well polystyrene plates", "setting": "[6]; 4× the IC50 (64.4 μM), 0.1% sucrose", "result": "significantly reduced"}, {"measurement": "concentrations disrupting biofilm formation on the surface of resin teeth", "setting": "[6]; 0.1% sucrose, safranin staining", "result": "higher than 32.2 μM"}]}, {"compound": "COc1cc(C[C@H]2COC(=O)[C@@H]2Cc2ccc(O)c(OC)c2)ccc1O", "note": "[Compound 2, (−)-matairesinol]", "values": [{"measurement": "MIC", "setting": "[1]; Streptococcus mutans", "result": "> 300", "unit": "µM"}, {"measurement": "IC50", "setting": "[5]; [11]", "result": "> 300", "unit": "µM"}]}, {"compound": "O=c1c(O)c(-c2ccc(O)c(O)c2)oc2cc(O)cc(O)c12", "note": "[Compound 3, quercetin]", "values": [{"measurement": "MIC", "setting": "[1]; Streptococcus mutans", "result": "> 300", "unit": "µM"}, {"measurement": "SrtA inhibitory activity (in words)", "setting": "[5]; S. mutans SrtA", "result": "weak inhibitory activities"}]}, {"compound": "COc1cc(O)cc(O)c1C(C)=O", "note": "[Compound 4, 4,6-dihydroxy-2-methoxyacetophenone]", "values": [{"measurement": "MIC", "setting": "[1]; Streptococcus mutans", "result": "> 300", "unit": "µM"}, {"measurement": "SrtA inhibitory activity (in words)", "setting": "[5]; S. mutans SrtA", "result": "weak inhibitory activities"}, {"measurement": "IC50", "setting": "[5]; [11]", "result": 151, "unit": "µM"}, {"measurement": "IC50", "setting": "[5]; pIC50, pIC50 = −log10(IC50), S. mutans SrtA", "result": 155, "unit": "µM"}]}, {"compound": "CC(C)c1cc(=O)c(O)ccc1O", "note": "[Compound 5, 5-hydroxyhinokitiol]", "values": [{"measurement": "MIC", "setting": "[1]; Streptococcus mutans", "result": "> 300", "unit": "µM"}, {"measurement": "IC50", "setting": "[5]; [11]", "result": 51.7, "unit": "µM"}]}, {"compound": "C/C(=C\\Cc1ccc(=O)c(O)cc1C(C)C)CO", "note": "[Compound 6, juniperone A]", "values": [{"measurement": "MIC", "setting": "[1]; Streptococcus mutans", "result": 257, "unit": "µM"}, {"measurement": "IC50", "setting": "[5]; [11]", "result": 62.5, "unit": "µM"}]}, {"compound": "[F-].[Na+]", "note": "[NaF, reference compound]", "values": [{"measurement": "effect on S. mutans biofilm formation (positive control)", "setting": "[6]; 0.1%", "result": "potent inhibitory effects"}]}, {"compound": "CC(C)C(=O)Cc1c(OCC(O)C(C)(C)O)ccc2ccc(=O)oc12", "note": "(stereo not drawn) [Triphasiol, reference compound]", "values": [{"measurement": "IC50", "setting": "[7]", "result": 34.5, "unit": "µM"}, {"measurement": "pIC50", "setting": "[5]; pIC50 = −log10(IC50), S. mutans SrtA", "result": 4.60}, {"measurement": "IC50", "setting": "[5]; recombinant SrtA from S. mutans OMZ65, 1 h, 37°C, read-out: SrtA IC50", "result": 25.3, "unit": "µM"}]}, {"compound": "O=C(O)/C=C/c1ccc(O)c(O)c1", "note": "[caffeic acid]", "values": [{"measurement": "IC50", "setting": "[8]", "result": 20.2, "unit": "µM"}]}, {"compound": "COc1cc(/C=C/C(=O)CC(=O)/C=C/c2ccc(O)c(OC)c2)ccc1O", "note": "[curcumin]", "values": [{"measurement": "IC50", "setting": "[9]", "result": 10.2, "unit": "µM"}]}, {"compound": "O=c1c(O)c(-c2ccc(O)cc2O)oc2cc(O)cc(O)c12", "note": "[morin]", "values": [{"measurement": "IC50", "setting": "[9]", "result": 27.2, "unit": "µM"}]}, {"compound": "O=c1c(O)c(-c2cc(O)c(O)c(O)c2)oc2cc(O)cc(O)c12", "note": "[myricetin]", "values": [{"measurement": "IC50", "setting": "[10]", "result": 48.7, "unit": "µM"}]}, {"compound": "(−)-rosmarinic acid", "values": [{"measurement": "IC50", "setting": "[8]", "result": 20.1, "unit": "µM"}]}]}
